Laboratory results taken from US20030175270A1, “Methods of regulating cytokine receptor signaling” (priority 2002, published 2003).

How the values were obtained:
Coxsackievirus B3 (CVB3) = test: CVB3 replication in Jurkat cells, plaque-forming assay; assay type: cell-based, human; conditions: IFN-α 1,000 units/ml pretreatment 4 h; cd45-deficient vs parental Jurkat cells
Method: For Coxsackievirus infections in vitro, Jurkat cells were pretreated with IFN-α (1,000 units ml−^1) for 4 h and inoculated in triplicate with 3×10^5 CVB3 for 1 h at 37° C. Cells were then washed to remove excess IFN-α and excess CBV3 virus, and resuspended in RPMI medium containing 10% FBS. After 24 h, culture supernatants were analyzed for the presence of infectious CVB3 by using plaque-forming assays in HeLa cell monolayers. For CVB3 infections in vivo , the cd45mutation was backcrossed onto an A/J (H2^k/k ) background for five generations. A/J (H2^k/k) mice are highly susceptible to acute and chronic CVB3 infections. Four-week-old mice were inoculated intraperitoneally with 10^5 plaque-forming units of CVB3. For lethality scores, cd45−^/− (n=25) and cd45^± (n=22) littermate mice were monitored daily after infection. […] At defined time points, mice were sacrificed and organs were processed for histology. Sections from eight mice per group were stained with haematoxylin/eosin and Masson blue. In all experiments, the CVB3 strain Gauntt-Chow was used.
IFN-α and IFN-α R-regulated signaling are critical for replication of the picomavirus Coxsackievirus B3 (CVB3) in vitro and CVB3 infections in vivo [Kandolf et al., J. Mol. Cell. Cardiol. 17:167-181, 1985]. […] CVB3 titres were measured after infection of parental or cd45-deficient Jurkat cell lines. […]

JAK2 = JAK2 activation/phosphorylation in IL-3 stimulated BMMCs treated with Src inhibitor; assay type: cell-based, mouse
Method: (§1) Murine BMMCs, splenic B cells, thymocytes, peritoneal macrophages and Jurkat T-cell lines were stimulated with various cytokines. For immunoprecipitations, lysates were incubated with antibodies conjugated with agarose or Sepharose beads for 2 h at 4° C. Total cell lysates or immunoprecipitates were separated using SDS-polyacrylamide gel electrophoresis, transferred onto membranes and immunoblotted. COS cells were transfected using diethylaminoethyl-dextron transfection technique with wild-type or PTPase-dead CD45 (D1:C828s) as described [McKenney et al., J. Biol. Chem. 270:24949-24954, 1995].
For tyrosine phosphatase assays, immunoprecipitated Lyn, JAKs or STATs from lysates of 10^7 BMMCs (for Lyn, JAK1, JAK2, STAT3 and STAT5) or macrophages (for Tyk2) were washed in lysis buffer and phosphatase reaction buffer [Felberg et al., J. Biol. Chem. 273:17839-17845, 1998]. The amounts of Lyn and JAK2 in the immunoprecipitates used in FIG. 3A were 72 ng and 48 ng, respectively, as determined by silver staining. […] Tyrosine phosphorylation was monitored by immunoblotting with phosphotyrosine-specific antibodies. The extent of tyrosine phosphorylation and amount of substrates were determined by quantifying the intensities of the immunoblots with NIH Image 1.61 software. […]

STAT3 = STAT3 Tyr 705 phosphorylation in IL-3 stimulated BMMCs treated with Src inhibitor; assay type: cell-based, mouse; conditions: IL-3 stimulated cd45+/+ or cd45-/- BMMCs
Method: as §1
(§2) Experiments were designed in order to assess whether Src kinases, known substrates of CD45, were deregulated during hyperactivation of the JAK-STAT pathway in cd45^−/− BMMCs. […] In addition, in IL-3 stimulated cd45^+/+ or cd45 ^−/− BMMCs, treatment with PP2 had no effect on the increased phosphorylation of the specific residues Tyr 1007 and TYR1008 in JAK2, Tyr 705 in STAT3, and Tyr 1022 and Tyr 1023 in JAK1 (see FIG. 2).

JAK1 = JAK1 Tyr 1022/Tyr 1023 phosphorylation in IL-3 stimulated BMMCs treated with Src inhibitor; assay type: cell-based, mouse; conditions: IL-3 stimulated cd45+/+ or cd45-/- BMMCs
Method: as §1, §2

rCD45 = target: T1, rCD45 (Homo sapiens, UniProt P08575); test: inhibition of rCD45-mediated JAK2 dephosphorylation; assay type: biochemical; conditions: 0.1 mM Na3 VO4, 10 U rCD45
T1 construct: The rCD45 employed contained the intracellular dual PTPase domains with a relative molecular mas of 97,000 (Mr 97K); purchased Calbiochem
T1 sequence (P08575 599-1306 limits assumed): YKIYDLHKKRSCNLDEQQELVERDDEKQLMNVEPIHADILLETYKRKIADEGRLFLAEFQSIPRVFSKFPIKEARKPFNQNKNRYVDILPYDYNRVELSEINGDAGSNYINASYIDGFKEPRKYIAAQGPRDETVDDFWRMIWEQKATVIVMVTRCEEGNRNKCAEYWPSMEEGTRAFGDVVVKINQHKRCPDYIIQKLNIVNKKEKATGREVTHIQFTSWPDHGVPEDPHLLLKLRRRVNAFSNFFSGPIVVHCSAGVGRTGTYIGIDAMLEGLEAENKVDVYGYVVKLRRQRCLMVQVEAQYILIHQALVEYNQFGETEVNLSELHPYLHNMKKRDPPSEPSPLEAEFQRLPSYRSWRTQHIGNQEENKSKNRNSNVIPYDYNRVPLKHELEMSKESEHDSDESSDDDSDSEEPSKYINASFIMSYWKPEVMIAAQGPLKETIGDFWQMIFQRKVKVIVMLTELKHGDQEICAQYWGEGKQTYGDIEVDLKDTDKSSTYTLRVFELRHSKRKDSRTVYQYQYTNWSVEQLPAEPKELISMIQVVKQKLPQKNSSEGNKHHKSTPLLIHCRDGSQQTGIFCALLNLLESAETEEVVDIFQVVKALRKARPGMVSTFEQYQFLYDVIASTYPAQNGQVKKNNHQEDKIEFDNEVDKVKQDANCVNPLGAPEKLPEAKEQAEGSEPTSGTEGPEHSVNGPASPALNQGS
Method: For tyrosine phosphatase assays, immunoprecipitated Lyn, JAKs or STATs from lysates of 10^7 BMMCs (for Lyn, JAK1, JAK2, STAT3 and STAT5) or macrophages (for Tyk2) were washed in lysis buffer and phosphatase reaction buffer [Felberg et al., J. Biol. Chem. 273:17839-17845, 1998]. The amounts of Lyn and JAK2 in the immunoprecipitates used in FIG. 3A were 72 ng and 48 ng, respectively, as determined by silver staining. Recombinant CD45 was added to substrates in the presence or absence of 0.1 mM Na3 VO4 followed by incubation at 30° C. for 20 min. Tyrosine phosphorylation was monitored by immunoblotting with phosphotyrosine-specific antibodies. The extent of tyrosine phosphorylation and amount of substrates were determined by quantifying the intensities of the immunoblots with NIH Image 1.61 software. Kinase activity in anti-Lyn or anti-JAK immunoprecipitates was assessed by an in vitro kinase assay with Raytide (Oncogen Science) as a substrate or using authophosphorylation [Lui et al., Genes Dev. 13:786-791, 1999]. In vitro binding assays were performed as described [Felberg et al., J. Biol. Chem. 273:17839-17845, 1998], using 1 μg of soluble GST, GST-CD45-D2, or GST-PTPase-dead CD45 (D1:C828S). EMSAs were as described [Charurvedi et al., Mol. Cell. Biol. 17:3295-3304, 1997]. The sequences of the EMSA probes were: STAT3, 5′-[…]-3′ (SEQ ID NO: 1); STAT3 mutant, 5′-[…]-3′ (SEQ ID NO: 2). […]

IFN-α
suppression of CVB3 viral amplification (Coxsackievirus B3 (CVB3)): suppressed viral amplification more efficiently in cd45-deficient cells than in parental Jurkat cells

CC(C)(C)n1nc(-c2ccc(Cl)cc2)c2c(N)ncnc21 [PP2]
increased phosphorylation of Tyr 1007 and Tyr 1008 in JAK2 (JAK2; IL-3 stimulated cd45+/+ or cd45-/- BMMCs): no effect | JAK2 activation (JAK2; cd45+/+ and cd45-/- BMMCs, addition of the inhibitor): unaffected | increased phosphorylation of Tyr 705 in STAT3 (STAT3): no effect | increased phosphorylation of Tyr 1022 and Tyr 1023 in JAK1 (JAK1): no effect

[Na+].[Na+].[Na+].[O]=[V]([O-])([O-])[O-] [vanadate, Na3 VO4]
effect on rCD45-mediated JAK2 dephosphorylation (rCD45): inhibits | effect on rCD45-mediated JAK2 dephosphorylation (rCD45; listed as mandate): blocked JAK2 dephosphorylation
